Test results reported in PMC8373216, “Development and Preclinical Evaluation of New Inhaled Lipoglycopeptides for the Treatment of Persistent Pulmonary Methicillin-Resistant Staphylococcus aureus Infections” (Antimicrobial Agents and Chemotherapy, 2021).
Values after ≈ are worked out from the molar mass of the structure shown. Read-outs that look alike come from different tables or passages of the source.

Experiments:
[1] = Single-dose nebulized nose-only inhalation PK in healthy rats; format: in vivo, rat; settings: single nebulized nose-only inhaled dose, healthy rats
Procedure, shortened: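 Ten or eleven rats per cohort dosed once by nebulized nose-only inhalation, delivered dose estimated from 5 min aerosol filter sampling. Lungs and plasma collected from immediately postdose (~30 min) to 168 h; drug quantified by LC-MS/MS after protein precipitation. PK by noncompartmental analysis, linear up/log down.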

[2] = system: Staphylococcus haemolyticus; test: Expanded panel broth microdilution MIC; format: cell-based
Enterococcus faecalis = test: Expanded panel broth microdilution MIC/MBC; format: cell-based
Enterococcus faecium = test: Expanded panel broth microdilution MIC/MBC; format: cell-based; settings: for MIC: Enterococcus faecium
Streptococcus pneumoniae = test: Expanded panel broth microdilution MIC/MBC; format: cell-based
[3] = system: Streptococcus dysgalactiae; test: Expanded panel broth microdilution MIC/MBC; format: cell-based; settings: for MIC: Streptococcus dysgalactiae
[4] = system: Streptococcus constellatus; test: Expanded panel broth microdilution MIC; format: cell-based
Clostridioides difficile = test: Expanded panel broth microdilution MIC; format: cell-based
[5] = system: Peptostreptococcus anaerobius; test: Expanded panel broth microdilution MIC; format: cell-based
[6] = system: MRSA (ATCC BAA 1556; USA300); test: Acute pulmonary MRSA infection in neutropenic rats, nebulized nose-only inhalation; format: in vivo, Staphylococcus aureus; settings: inhaled at 24 and 32 h postinfection, lungs at 48 h, 49.8 mg/kg delivered
Protocol: Rats were rendered neutropenic with intraperitoneal (i.p.) cyclophosphamide on day −4 (150 mg/kg) and day −1 (100 mg/kg) relative to the challenge. On day 0 at 0 h, rats were challenged with MRSA via intranasal instillation at a target titer of 8.0 to 8.3 log10 CFU. At 24 and 32 h postchallenge, rats were loaded into a 12-port inhalation dosing tower, where they received nebulized drug or vehicle control treatments by nose-only inhalation. Animals were euthanized at 48 h postinfection for enumeration of lung MRSA titer. MRSA lung titer of test article treatments versus control is plotted for three separate experiments. […] Statistics are based on the Kolmogorov-Smirnov test for drug treatment versus control (RV94, P = 0.01). LOD = 2.1 log10 CFU/lungset.
Male Sprague Dawley rats (Envigo, Indianapolis, IN) weighing between 225 and 250 g were used in these studies. Rats were housed and acclimated to the study facility as described in the PK methods section. Rats were rendered neutropenic through a series of intraperitoneal cyclophosphamide (Sigma-Aldrich) injections on day −4 (150 mg/kg) and day −1 (100 mg/kg) relative to the challenge. On day 0 at 0 h, rats were challenged with MRSA ATCC BAA 1556 via intranasal instillation at a target titer of 8.0 to 8.3 log10 CFU using optical density and back-counting inoculum CFU. To prepare the inoculum, a frozen aliquot of the organism stored at −80°C was thawed, transferred into TSB, and incubated at 37°C while shaking for 16 h. Cultures were then centrifuged at 2,000 × g for 5 min, and the resulting pellet was resuspended in PBS and equilibrated. For the challenge procedure, rats were first anesthetized through use of 2 to 5% isoflurane in 100% oxygen, then restrained with a scruff grip and a total of 200 μl of inoculum was quickly introduced to one nare. The rat was held in a vertical position until the challenge was fully inhaled. Rats were monitored following challenge to ensure that normal respiration was achieved and then returned to their cage. […] At necropsy, whole lungs were aseptically removed and lung weights were recorded. […]

[7] = system: MRSA ATCC BAA 1556 (USA300) biofilm; test: Static MRSA biofilm killing, plastic microtiter plate, MEM

CN[C@H](CC(C)C)C(=O)N[C@H]1C(=O)N[C@@H](CC(N)=O)C(=O)N[C@H]2C(=O)N[C@H]3C(=O)N[C@H](C(=O)N[C@H](C(=O)O)c4cc(O)cc(O)c4-c4cc3ccc4O)[C@H](O)c3ccc(c(Cl)c3)Oc3cc2cc(c3O[C@@H]2O[C@H](CO)[C@@H](O)[C@H](O)[C@H]2O[C@H]2C[C@](C)(N)[C@H](O)[C@H](C)O2)Oc2ccc(cc2Cl)[C@H]1O [Vancomycin, vancomycin]
half-life ([1]; male, Sprague Dawley, rat, in vivo, inhaled or intranasal, noncompartmental analysis, read-out: Lung t1/2 (converted)): 23 h | Kp ([1]; male, Sprague Dawley, rat, in vivo, inhaled or intranasal, read-out: Lung: Plasma Cmax ratio): 4 | Cmax ([1]; male, Sprague Dawley, rat, in vivo, inhaled or intranasal, read-out: Plasma Cmax): 8000 ng/mL | Pulmonary dose ([1]; measured directly in lung tissue): 0.20 mg/kg | Lung AUC0-∞ [1]: 671 µg·h/g | Lung Cmax [1]: 31 µg/g | MIC [2]: 1 µg/mL (≈ 0.69 µM) | MIC ([2]; ATCC29970): 1 µg/mL (≈ 0.69 µM) | MIC:MBC (Enterococcus faecalis; E. faecalis VSE, MBC on one organism): >8 | MIC (Enterococcus faecalis; E. faecalis VanA VRE, 1 isolate): 128 µg/mL (≈ 88.3 µM) | MIC (Enterococcus faecalis; Enterococcus faecalis): 1 µg/mL (≈ 0.69 µM) | MIC (Enterococcus faecalis; Enterococcus faecalis, ATCC29212): 2 µg/mL (≈ 1.38 µM) | MIC (Enterococcus faecalis; Enterococcus faecalis, VRE): 128 µg/mL (≈ 88.3 µM) | MIC (Enterococcus faecalis; Enterococcus faecalis, read-out: MIC (median)): 1.5 µg/mL (≈ 1.04 µM) | MIC:MBC (Enterococcus faecium; E. faecium VanB VRE): >2 | MIC (Enterococcus faecium; E. faecium MMX 4204, VSE): 0.5 µg/mL (≈ 0.345 µM) | MIC (Enterococcus faecium; E. faecium VSE, 1 isolate): 0.5 µg/mL (≈ 0.345 µM) | MIC (Enterococcus faecium; VRE, E. faecium MMX 173, VanB VRE): 64 µg/mL (≈ 44.2 µM) | MIC (Enterococcus faecium; VRE, E. faecium MMX 851, VanA VRE): 128 µg/mL (≈ 88.3 µM) | MIC (Enterococcus faecium; VRE, E. faecium VanA VRE, 1 isolate): 128 µg/mL (≈ 88.3 µM) | MIC (Enterococcus faecium; VRE, E. faecium VanB VRE, 1 isolate): 64 µg/mL (≈ 44.2 µM) | MIC:MBC (Streptococcus pneumoniae; S. pneumoniae PISP, MBC on one organism): 8 | MIC (Streptococcus pneumoniae; S. pneumoniae PRSP, 1 isolate): 0.25 µg/mL (≈ 0.173 µM) | MIC (Streptococcus pneumoniae; Streptococcus pneumoniae): 0.12 µg/mL (≈ 0.0828 µM) | MIC (Streptococcus pneumoniae; Streptococcus pneumoniae, ATCC49619): 1 µg/mL (≈ 0.69 µM) | MIC (Streptococcus pneumoniae; Streptococcus pneumoniae, PRSP): 0.25 µg/mL (≈ 0.173 µM) | MIC (Streptococcus pneumoniae; Streptococcus pneumoniae, read-out: MIC (median)): 0.6 µg/mL (≈ 0.414 µM) | MIC:MBC ([3]; S. dysgalactiae, MBC on one organism): >8 | MIC ([3]; S. dysgalactiae MMX 5121): 0.25 µg/mL (≈ 0.173 µM) | MIC ([3]; S. dysgalactiae MMX 5123): 0.25 µg/mL (≈ 0.173 µM) | MIC ([3]; S. dysgalactiae MMX 5124): 0.25 µg/mL (≈ 0.173 µM) | MIC ([3]; read-out: MIC (median), S. dysgalactiae, 3 isolates): 0.25 µg/mL (≈ 0.173 µM) | MIC ([4]; S. constellatus AGS, 1 isolate): 0.25 µg/mL (≈ 0.173 µM) | MIC ([4]; Streptococcus constellatus): 0.25 µg/mL (≈ 0.173 µM) | MIC (Clostridioides difficile; ATCCBAA1805, C. difficile ATCC BAA-1805, ribo 027): 0.5 µg/mL (≈ 0.345 µM) | MIC (Clostridioides difficile; ATCCBAA1870, C. difficile ATCC BAA-1870, NAP1;ribo 027): 1 µg/mL (≈ 0.69 µM) | MIC (Clostridioides difficile; C. difficile ATTC 700057, toxAB-): 0.25 µg/mL (≈ 0.173 µM) | MIC (Clostridioides difficile; C. difficile NAP1;ribo 027, 1 isolate): 1 µg/mL (≈ 0.69 µM) | MIC (Clostridioides difficile; C. difficile ribo 027, 1 isolate): 0.5 µg/mL (≈ 0.345 µM) | MIC (Clostridioides difficile; C. difficile toxAB-, 1 isolate): 0.25 µg/mL (≈ 0.173 µM) | MIC [5]: 0.12 µg/mL (≈ 0.0828 µM) | MIC ([5]; ATCC27337): 0.12 µg/mL (≈ 0.0828 µM) | Average increase in lung MRSA titer versus inhaled vehicle control [6]: 0.1 log10 CFU | Reduction in MRSA biofilm titer ([7]; >20 μg/ml dose): 3 log10 CFU/ml | Reduction in MRSA biofilm titer versus control ([7]; doses 1 to 10 μg/ml): approximately 2 log10 CFU/ml | Concentrations with statistically significant reduction versus control biofilm ([7]; two-way ANOVA, Bonferroni): ≥ 22 µg/mL
